Assays:
[1] = system: HeLa cells
[2] = system: HeLa cells; test: alkaline comet unwinding assay in HeLa cells; assay type: cell-based, human; settings: 100 μg/ml synthetic compounds, 5-6 h
Experimental: To assess DNA damage using chemical extracts of bacterial metabolites, HeLa, MC38 or HCT116 cells were treated with 5 mg/ml ethyl-acetate extracts diluted in culture medium supplemented with 10 mM HEPES for 4-6 h.
To assess DNA damage using pure compounds, HeLa cells were treated with 100 µg/ml cisplatin, 100 μg/ml, 25 μg/ml, or 10 μg/ml indolimine-214 (1), compound 2, indolimine-200 (3), indolimine-248 (4) or 0.1% DMSO diluted in culture medium supplemented with 10 mM HEPES for 4-6 h.
After treatment with ethyl-acetate extracts or pure synthetic compounds, HeLa cells were washed with PBS and collected via trypsinization. DNA damage was assessed via alkaline single cell gel electrophoresis using the Trevigen Comet Assay kit (Trevigen, Inc.) according to the manufacturer's instructions. Briefly, cells were embedded in Comet LMAgarose and loaded onto CometSlide™. Slides were placed flat at 4° C. in the dark for 10 min and then immersed overnight in Lysis Solution at 4° C. […] Comet images were acquired using a Leica DMRB fluorescence microscope. Tail DNA % (Tail DNA content as a percentage of Comet DNA content) and Tail moment (Tail length multiplied by Tail DNA %) were analyzed with OpenComet v1.3.1., and 20-50 comets were recorded for each sample.

[3] = system: circular pUC19 plasmid DNA
[4] = NMR analysis of synthetic indolimine-214 after preparative HPLC purification; settings: upon preparative HPLC purification; reversible reaction in water

Structure (SMILES) | γ-H2AX in HeLa cells [1] | genotoxicity (γ-H2AX, HeLa) in relation to purity [1] | tailing in alkaline comet unwinding assay [2] | DNA damage of circular pUC19 plasmid [3] | degradation into the two starting materials [4] [%]
CC(C)C/N=C/c1c[nH]c2ccccc12 [indolimine-200 (3)] | triggered increased 7-H2AX in HeLa cells in a dose-dependent manner | – | – | – | –
CC(C)CCN=Cc1c[nH]c2ccccc12 [indolimine-214 (1)] | triggered increased γ-H2AX in a dose-dependent manner | correlated directly with its purity | induced tailing | neither synthetic indolimine-214 (1) nor compound 2 alone (up to 1 mg/ml) induced DNA damage | ≥ 20
C(=N\CCc1ccccc1)/c1c[nH]c2ccccc12 [indolimine-248 (4)] | triggered increased 7-H2AX in HeLa cells in a dose-dependent manner | – | – | – | –

Reference: patent publication US20260139328A1, “NOVEL MICROBIAL GENOTOXINS” (Yale University, priority 2022, published 2026)
